pIC50: −log10 of the molar value.
Columns and labels:
[1] = target: recombinant human DPPI (Cathepsin C) (Homo sapiens (Human), UniProt P53634); assay: Inhibition of human DPPI (Cathepsin C); format: biochemical; details: substrate Gly-Arg-AMC
Summary of the method: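 Fluorescence read after 30 min room-temperature turnover of 50 μM (final) substrate by recombinant human cathepsin C, pH 6.0 MES/NaCl/DTT/BSA buffer, quenched by Gly-Phe-DMK (1 μM final). Activity as percent of vehicle after background subtraction, used for IC50.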

in vitro = details: human, microsomes, pH 7.6
[2] = target: recombinant human Cathepsin K (Homo sapiens (Human), UniProt P43235); assay: Inhibition of human Cathepsin K; format: biochemical; details: substrate Z-Gly-Pro-Arg-AMC
Sequence of recombinant human Cathepsin K (P43235 115-329): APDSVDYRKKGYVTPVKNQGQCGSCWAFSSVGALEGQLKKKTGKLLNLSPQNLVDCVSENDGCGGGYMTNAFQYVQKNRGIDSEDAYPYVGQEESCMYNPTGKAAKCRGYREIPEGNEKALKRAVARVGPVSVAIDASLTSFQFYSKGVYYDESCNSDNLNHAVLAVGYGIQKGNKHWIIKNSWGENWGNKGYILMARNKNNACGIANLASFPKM
Summary of the method: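 Fluorogenic Z-Gly-Pro-Arg-AMC cleavage, 60 min at room temperature, after a 10 min enzyme–compound preincubation (enzyme 2 ng/μL; compound 0.1 nM–100 μM; 1% DMSO). Buffer pH 5.5 with sodium acetate, EDTA and L-cysteine; procathepsin first activated 30 min at pH 3.5. E64 (1 μM) stop; IC50 derived from percent of vehicle signal minus background (Ex 360/Em 460 nm).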

Sequence of recombinant human DPPI (Cathepsin C) (P53634 231-394): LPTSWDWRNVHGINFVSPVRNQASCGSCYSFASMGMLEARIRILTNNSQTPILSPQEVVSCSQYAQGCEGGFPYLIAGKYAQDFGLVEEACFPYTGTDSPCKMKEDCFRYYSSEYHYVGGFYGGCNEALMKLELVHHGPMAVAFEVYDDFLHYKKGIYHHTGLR
Sequence of recombinant human DPPI (Cathepsin C) (P53634 395-463): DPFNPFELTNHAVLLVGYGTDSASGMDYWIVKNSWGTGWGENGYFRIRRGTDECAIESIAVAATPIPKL
Sequence of recombinant human DPPI (Cathepsin C) (P53634 25-134): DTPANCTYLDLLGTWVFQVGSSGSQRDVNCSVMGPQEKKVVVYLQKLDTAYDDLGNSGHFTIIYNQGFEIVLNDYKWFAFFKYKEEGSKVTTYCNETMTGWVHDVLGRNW

Structure (SMILES)	pIC50 [1]	half-life at 1 μM (in vitro)	pIC50 [2]
N#C[C@H](Cc1ccc(N2CCNCC2)cc1F)NC(=O)[C@H]1N[C@@H]2CC[C@H]1C2 [Example 204]	7.61	> 2.17 h	
CN1CC=C(c2ccc(C[C@@H](C#N)NC(=O)[C@H]3N[C@@H]4CC[C@H]3C4)c(F)c2)CC1 [Example 223]		> 2.17 h	
CN(C)CCN1C(=O)Cc2ccc(-c3ccc(C[C@@H](C#N)NC(=O)[C@H]4N[C@@H]5CC[C@H]4C5)c(F)c3)cc21 [Example 278]	9.00	> 2.17 h	5.92
N#C[C@H](Cc1ccc(C2=CC3COCCN3CC2)cc1F)NC(=O)[C@H]1N[C@@H]2CC[C@H]1C2 (stereo partly drawn) [Example 282]	8.43	> 2.17 h	5.74
CCN1CC=C(c2ccc(C[C@@H](C#N)NC(=O)[C@H]3N[C@@H]4CC[C@H]3C4)c(F)c2)CC1 [Example 320]	8.02	> 2.17 h	
CN1CCC(C)(c2ccc(C[C@@H](C#N)NC(=O)[C@H]3N[C@@H]4CC[C@H]3C4)c(F)c2)CC1 [Example 321]		> 2.17 h	
CN1CC2CCC(C1)N2c1ccc(C[C@@H](C#N)NC(=O)[C@H]2N[C@@H]3CC[C@H]2C3)c(F)c1 [Example 328]	8.38	> 2.17 h	5.11
N#C[C@H](Cc1ccc(C2=CCN(C3CCOC3)CC2)cc1F)NC(=O)[C@H]1N[C@@H]2CC[C@H]1C2 (stereo partly drawn) [Example 332]	7.89	1.67 h	5.21
CN1C2CCC1CN(c1ccc(C[C@@H](C#N)NC(=O)[C@H]3N[C@@H]4CC[C@H]3C4)c(F)c1)C2 [Example 333]	7.82	> 2.17 h	5.62

— patent publication US8987249B2, “Substituted 2-Aza-bicyclo[2.2.1]heptane-3-carboxylic acid (benzyl-cyano-methyl)-amides inhibitors of Cathepsin C” (Boehringer Ingelheim International GmbH, priority 2013, dated 2015)
